Measured values: US20080076824A1, “Compounds That Inhibit Replication Of Human Immunodeficiency Virus” (priority 2004, published 2008)
Values joined by “and” are separate entries in the source; they are usually repeats but may differ in a detail not shown here. Equal entries are not always repeated. “Also recorded” adds a separate entry of the source. Where two headings read alike, the source gives them in different places. Residues, ends and D or L forms follow the SMILES beside them.

Experiments:
HIV-2 (ROD) = test: microbe, parasite or virus in culture; assay type: cell-based; conditions: CEM cell cultures, syncytia formation, Table 1; read-out: EC50 HIV-2 ROD
Summary of the method: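 CEM, C8166 or MT-4 cells (4 to 5×10^5 cells/ml) infected with HIV-2 ROD at ~100 CCID50/ml, then incubated with 5-fold compound dilutions at 37 °C for 4–5 days. Giant cell formation scored microscopically in CEM and C8166 cultures; MT-4 viability counted by trypan blue exclusion.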

HIV-1 (IIIB) = test: microbe, parasite or virus in culture
Summary of the method: (§1)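 MT-4, C8166 or CEM cells (4 to 5×10^5 cells/ml) infected at ~100 CCID50/ml, incubated with 5-fold compound dilutions at 37 °C for 4–5 days. Read-out: microscopic giant-cell formation in CEM and C8166 cultures; viable-cell count by trypan blue in MT-4.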

HIV-2(ROD) = test: microbe, parasite or virus in culture
Summary of the method: as §1

Coxsackie virus B4 [1] = test: Antiviral activity in HeLa cell cultures, Coxsackie virus B4; assay type: cell-based; conditions: reduces virus-induced cytopathogenicity by 50%, read-out: Minimum inhibitory concentration Coxsackie virus B4
Method: (§2) The cytotoxicity and antiviral activity of various concentrations of G-NH2 and GPG-NH2 were evaluated in cell cultures that were infected with various types of viruses. Conventional host cell culture, viral infection, and infectivity analysis for each different type of cell and virus were followed. Compounds that were known to inhibit replication of the particular types of viruses analyzed were used as controls.

Coxsackie virus B4 [2] = test: Antiviral activity in Vero cell cultures, Coxsackie virus B4; assay type: cell-based; conditions: reduces virus-induced cytopathogenicity by 50%, read-out: Minimum inhibitory concentration Coxsackie virus B4
Method: as §2

HIV (SF2 virus) [3] = test: HIV infectivity assay, SF2-infected H9 cells, reverse transcriptase (RT) quantification in supernatant; assay type: cell-based; conditions: for RT mean: mean of replicates; for RT: single replicate
HIV (SF2 virus) [4] = test: HIV infectivity assay, SF2-infected H9 cells, p24 quantification; assay type: cell-based; conditions: for OD1: replicates (1)-(3)
Method: The remaining wells were filled with sterile distilled water. The cell culture plates were incubated at 37° C. and 5% CO2. After four days the medium was changed, after eight days the medium was changed and the cells were collected. After 11 days, the infection was stopped, the cells were viewed in a 10× magnification microscope and 650 μl of each cell supernatant was collected and frozen at −80° C. for further analysis. After five more days, the supernatants were thawed and used in a conventional reverse transcriptase (RT) activity assay (e.g., Roche AMPLICOR MONITOR™) or a p24 quantification assay (e.g., Abbott Laboratories, Chicago). (See U.S. Pat. No. 6,258,932 and U.S. patent application Ser. No. 10/235,158, both of which are hereby expressly incorporated by reference in its entireties).
[…] The cells in the samples were counted and then centrifuged. The cells were then resuspended in 10 ml of RPMI 1640 (containing fetal calf serum) and either […] Metabolite X or 100 μM GPG-NH2. Uninfected control and untreated control samples were also included in the experiment. The samples were then incubated overnight at 37° C. at 5% CO2.
Then, the amount of p24 in the samples was analysed using a conventional p24 detection assay (see U.S. Pat. No. 6,258,932).
Three replicate samples (“replicates”) of uninfected samples and untreated samples were also included in the experiment as controls. The inhibition of HIV replication was monitored by quantifying the levels of p24 using a conventional detection kit.
Three replicates of unninfected samples and untreated samples were also included in the experiment as controls.

[5] = tested on: Herpes simplex virus-1 (KOS); conditions: read-out: Minimum inhibitory concentration Herpes simplex virus-1 (KOS); HEL; reduces virus-induced cytopathogenicity by 50%
Vaccinia virus = conditions: read-out: Minimum inhibitory concentration Vaccinia virus; HEL; reduces virus-induced cytopathogenicity by 50%
[6] = tested on: Herpes simplex virus-1 TK^− KOS ACV^r; conditions: read-out: Minimum inhibitory concentration Herpes simplex virus-1 TK^− KOS ACV^r; HEL; reduces virus-induced cytopathogenicity by 50%
[7] = tested on: Vesicular stomatitis virus; conditions: read-out: Minimum inhibitory concentration Vesicular stomatitis virus; HeLa; reduces virus-induced cytopathogenicity by 50%
[8] = tested on: Respiratory syncytial virus; conditions: read-out: Minimum inhibitory concentration Respiratory syncytial virus; HeLa; reduces virus-induced cytopathogenicity by 50%
Punta Toro virus = conditions: read-out: Minimum inhibitory concentration Punta Toro virus; Vero; reduces virus-induced cytopathogenicity by 50%
[9] = read-out: EC50 (C8166) HIV-1 (IIIB), Table 19
[10] = read-out: EC50 (MT-4) HIV-1 (IIIB), Table 19
[11] = read-out: EC50 (C8166) HIV-2 (ROD), Table 19
[12] = read-out: EC50 (MT-4) HIV-2 (ROD), Table 19

Compound `NCC(N)=O` [G-NH2, glycinamide] has an EC50 (HIV-2 (ROD)) of 35 ± 8.7 µM, an EC50 (HIV-1 (IIIB); [9]) of 150 µM and an EC50 (HIV-1 (IIIB); read-out: EC50 (C8166) HIV-1 (IIIB), Table 20) of 150 µM. The EC50 (HIV-1 (IIIB); [10]) was > 500 µM, the EC50 (HIV-1 (IIIB); read-out: EC50 (MT-4) HIV-1(IIIB), Table 20, related set of experiments) was > 500 µM and the EC50 (HIV-2(ROD); [11]) was 150 µM. For the same compound, the EC50 (HIV-2(ROD); read-out: EC50 (C8166) HIV-2 (ROD), Table 20) was 150 µM, the EC50 (HIV-2(ROD); [12]) was > 500 µM and the EC50 (HIV-2(ROD); read-out: EC50 (MT-4) HIV-2 (ROD), Table 20) was > 500 µM. The EC50 (Coxsackie virus B4 [1]) was > 2000 µM, the EC50 (Coxsackie virus B4 [2]) was > 2000 µM and the OD405-620 (HIV (SF2 virus) [3]; 0.5 μM, fetal calf serum) was 0.871 and 0.896 and 0.908. For the same compound, the “OD405-620 - Blank” value (HIV (SF2 virus) [3]; 0.5 μM, fetal calf serum) was 0.845 and 0.87 and 0.882, the RT mean (HIV (SF2 virus) [3]; 0.5 μM, fetal calf serum) was 9152 pg/mL and the RT (HIV (SF2 virus) [3]; 0.5 μM, fetal calf serum) was 8927 pg/mL and 9199 pg/mL and 9329 pg/mL. For the same compound, the OD405-620 (HIV (SF2 virus) [3]; 1 μM, fetal calf serum) was 0.563 and 0.672 and 0.712, the “OD405-620 - Blank” value (HIV (SF2 virus) [3]; 1 μM, fetal calf serum) was 0.537 and 0.646 and 0.686 and the RT mean (HIV (SF2 virus) [3]; 1 μM, fetal calf serum) was 6514 pg/mL. For the same compound, the RT (HIV (SF2 virus) [3]; 1 μM, fetal calf serum) was 5579 pg/mL and 6764 pg/mL and 7199 pg/mL, the OD405-620 (HIV (SF2 virus) [3]; 2 μM, fetal calf serum) was 0.868 and 0.903 and 0.528 and the “OD405-620 - Blank” value (HIV (SF2 virus) [3]; 2 μM, fetal calf serum) was 0.842 and 0.877 and 0.502. The RT mean (HIV (SF2 virus) [3]; 2 μM, fetal calf serum) was 7789 pg/mL, the RT (HIV (SF2 virus) [3]; 2 μM, fetal calf serum) was 8895 pg/mL and 9275 pg/mL and 5199 pg/mL and the OD405-620 (HIV (SF2 virus) [3]; 4 μM, fetal calf serum) was 0.781 and 0.493 and 0.539. The “OD405-620 - Blank” value (HIV (SF2 virus) [3]; 4 μM, fetal calf serum) was 0.755 and 0.467 and 0.513, the RT mean (HIV (SF2 virus) [3]; 4 μM, fetal calf serum) was 6029 pg/mL and the RT (HIV (SF2 virus) [3]; 4 μM, fetal calf serum) was 7949 pg/mL and 4818 pg/mL and 5318 pg/mL. For the same compound, the OD405-620 (HIV (SF2 virus) [3]; 8 μM, fetal calf serum) was 0.274 and 0.302 and 0.332, the “OD405-620 - Blank” value (HIV (SF2 virus) [3]; 8 μM, fetal calf serum) was 0.248 and 0.276 and 0.306 and the RT mean (HIV (SF2 virus) [3]; 8 μM, fetal calf serum) was 2750 pg/mL. For the same compound, the RT (HIV (SF2 virus) [3]; 8 μM, fetal calf serum) was 2438 pg/mL and 2742 pg/mL and 3068 pg/mL, the OD405-620 (HIV (SF2 virus) [3]; 16 μM, fetal calf serum) was 0.563 and 0.861 and 0.902 and the “OD405-620 - Blank” value (HIV (SF2 virus) [3]; 16 μM, fetal calf serum) was 0.537 and 0.835 and 0.876. For the same compound, the RT mean (HIV (SF2 virus) [3]; 16 μM, fetal calf serum) was 158 pg/mL, the RT (HIV (SF2 virus) [3]; 16 μM, fetal calf serum) was 112 pg/mL and 176 pg/mL and 185 pg/mL and the OD405-620 (HIV (SF2 virus) [3]; 32 μM, fetal calf serum) was 0.141 and 0.155. The “OD405-620 - Blank” value (HIV (SF2 virus) [3]; 32 μM, fetal calf serum) was 0.115 and 0.129, the RT mean (HIV (SF2 virus) [3]; 32 μM, fetal calf serum) was 21 pg/mL and the RT (HIV (SF2 virus) [3]; 32 μM, fetal calf serum) was 20 pg/mL and 23 pg/mL. The “inhibition of HIV replication, reverse transcriptase (RT) activity” value (HIV (SF2 virus) [3]; cultures containing boiled fetal calf serum) was “unable to inhibit replication of HIV; also recorded: did not”, the OD1 (HIV (SF2 virus) [4]; 50 μM, fetal calf serum) was 0.182 and 0.105 and 0.319 and the “conc p24” value (HIV (SF2 virus) [4]; 50 μM, human serum) was 714.23 ng/mL and 653.27 ng/mL and 773.51 ng/mL. For the same compound, the OD2 (HIV (SF2 virus) [4]; 100 μM, fetal calf serum) was 0.075 and 0.069 and 0.071, the “conc p24” value (HIV (SF2 virus) [4]; 100 μM, fetal calf serum) was 0.09 ng/mL and 0.08 ng/mL and the “mean OD” value (HIV (SF2 virus) [4]; 100 μM, fetal calf serum) was 0.077 and 0.070 and 0.074. The “mean OD - blank” value (HIV (SF2 virus) [4]; 100 μM, fetal calf serum) was 0.035 and 0.028 and 0.032, the OD1 (HIV (SF2 virus) [4]; 100 μM, fetal calf serum) was 0.078 and 0.071 and 0.077 and the “conc p24” value (HIV (SF2 virus) [4]; 100 μM, human serum) was 780.21 ng/mL and 785.24 ng/mL and 876.34 ng/mL. For the same compound, the “inhibition of HIV replication, accumulation of p24” value (HIV (SF2 virus) [4]; human serum) was “unable to inhibit HIV replication in human serum”, the EC50 [5] was > 2000 µM and the EC50 (Vaccinia virus) was > 2000 µM. For the same compound, the EC50 [6] was > 2000 µM, the EC50 [7] was > 2000 µM and the EC50 [8] was > 2000 µM. The EC50 (Punta Toro virus) was > 2000 µM.

`NCC(=O)N1CCC[C@H]1C(=O)NCC(N)=O` [GPG-NH2, glycylprolylglycinamide] (H-Gly-Pro-Gly-NH2) was tested, and the EC50 (HIV-2 (ROD)) was 30 ± 10 µM, the EC50 (HIV-1 (IIIB); [9]) was 150 µM and the EC50 (HIV-1 (IIIB); [10]) was > 500 µM. The EC50 (HIV-2(ROD); [11]) was 150 µM, the EC50 (HIV-2(ROD); [12]) was > 500 µM and the EC50 (Coxsackie virus B4 [1]) was > 400 µM. The EC50 (Coxsackie virus B4 [2]) was > 400 µM, the “reverse transcriptase activity in treated samples” value (HIV (SF2 virus) [3]; 100 μM, fetal calf serum) was “no reverse transcriptase activity” and the “inhibition of HIV replication, p24” value (HIV (SF2 virus) [4]; 100 μM, presence of fetal calf serum) was “effectively inhibited HIV replication”. The EC50 [5] was > 400 µM, the EC50 (Vaccinia virus) was > 400 µM and the EC50 [6] was > 400 µM. The EC50 [7] was > 400 µM, the EC50 [8] was > 400 µM and the EC50 (Punta Toro virus) was > 400 µM.
